According to patent publication US12403135B2, “4H-pyrrolo[3,2-c]pyridin-4-one derivatives” (Bayer Aktiengesellschaft, priority 2019, dated 2025):
pIC50: −log10 of the molar value. Like-named read-outs stand apart in the source and are kept apart here.

Experiments:
Format in all cases: cell-based
[1] = target: Ba/F3-EGFR-WT cells (BA/F3 wild type EGFR) (Homo sapiens, UniProt P00533); test: BA/F3 (wild type) proliferation assay, Cell Titer-Glo; conditions: Table 7; plated with 10 ng/mL EGF, without IL-3, 48 h; read-out: BA/F3 (wild type) IC50
Protocol: (§1) Plates were incubated at 37° C. for 48 h. Retrovirus was harvested by filtering the media supernatant through a 0.45 μm filter.
(§2) Ba/F3 cells purchased from DSMZ were grown in RPMI+10% FBS+10 ng/mL IL-3 and infected with filtered retroviral supernatant at a 1:2 dilution. Polybrene was added to a concentration of 8 μg/mL, plates were spun for 90 min, and incubated overnight at 37° C. 2 μg/mL puromycin was added to the infected cells 24 h after infection and cells were continually grown in the presence of puromycin and 10 ng/mL IL-3. Following stably expressing Ba/F3 cell lines were generated: Ba/F3-EGFR-WT.
For cell survival assays, Ba/F3 cells were grown to a density of 1-2 million cells per mL, spun down and resuspended in media without IL-3, and replated at a concentration 200,000-500,000 cells per mL. The cells ectopically expressing WT EGFR were plated with 10 ng/mL Millipore Culture grade EGF.
(§3) 24 hours later, cells were plated in 30 μL in a 384 well plate at a concentration of 3200 cells per well for cells assayed in the absence of IL-3. 100 nL of compound was added to each well using a 100 nL pin head, and plates were incubated at 37° C. for 48 h.
(§4) Cell viability was measured by adding 30 μL of Cell Titer-Glo Luminescent Cell Viability Reagent. Plates were sealed with Perkin Elmer Top-Seal, inverted several times to mix, and immediately centrifuged at 1000 rpm for 2 min. Plates were incubated in low light conditions for 8-10 min and luminescence was measured.

[2] = tested on: Ba/F3-EGFR-delLREA cells (EGFR del19/delLREA (746-750), E746_A750del); test: BA/F3 EGFR del19/delLREA (746-750) (E746_A750del) cell survival assay, Cell Titer-Glo
Protocol: as §1
as §2, with “Ba/F3-EGFR-L858R, Ba/F3-EGFR-delLREA, (Ba/F3-vector-control).” for “Ba/F3-EGFR-WT.”
(§5) For cell survival assays, Ba/F3 cells were grown to a density of 1-2 million cells per mL, spun down and resuspended in media without IL-3, and replated at a concentration 200,000-500,000 cells per mL. The cells ectopically expressing pBABEpuro empty vector were plated with 10 ng/mL IL-3.
as §3, with “2 days” for “24 hours”, “50” for “30”, “4000” for “3200”, “absence of IL-3 and 2000 cells per well for cells (pBABE puro empty vector) assayed in the presence” for “absence”
as §4, with “20” for “30”, “Reagent diluted 1:3 in PBS.” for “Reagent.”

Ba/F3-EGFR-L858R cells = Ba/F3-EGFR-L858R cells (Homo sapiens, UniProt P00533, L858R, cells depend on it); test: BA/F3 EGFR L858R cell survival assay, Cell Titer-Glo; conditions: read-out: BA/F3 (EGFR L858R) IC50
Protocol: as §1
as §2, with “Ba/F3-EGFR-L858R, Ba/F3-EGFR-delLREA, (Ba/F3-vector-control).” for “Ba/F3-EGFR-WT.”
as §5
as §3, with “2 days” for “24 hours”, “50” for “30”, “4000” for “3200”, “absence of IL-3 and 2000 cells per well for cells (pBABE puro empty vector) assayed in the presence” for “absence”
as §4, with “20” for “30”, “Reagent diluted 1:3 in PBS.” for “Reagent.”

[3] = target: Ba/F3-EGFR-D770_N771 insNPG cells (Homo sapiens, UniProt P00533, INS772GNP, cells depend on it); test: BA/F3 (insNPG) proliferation, EGFR Exon20 insertion mutation; conditions: Table 9; EGFR Exon20 insertion mutations; read-out: BA/F3 (insNPG) IC50
Protocol: as §1
as §2, with “Ba/F3-EGFR-V769_D770 insASV, Ba/F3-EGFR-D770_N771 insNPG, Ba/F3-EGFR-N771_P772 insH, Ba/F3-EGFR-H773_V774 insNPH, Ba/F3-EGFR-D770_N771 insSVD C797S, Ba/F3-EGFR-E746_A750del C797S, Ba/F3-EGFR-L858R C797S, Ba/F3-EGFR L861Q and Ba/F3-ERBB2-A775_G776insYVMA (Ba/F3-vector-control).” for “Ba/F3-EGFR-WT.”

[4] = target: Ba/F3-EGFR-V769_D770 insASV cells (Homo sapiens, UniProt P00533, DUP767-769, cells depend on it); test: BA/F3 (ASV) proliferation, EGFR Exon20 insertion mutation; conditions: Table 9; EGFR Exon20 insertion mutations; read-out: BA/F3 (ASV) IC50
Protocol: as §1
as §2, with “Ba/F3-EGFR-V769_D770 insASV, Ba/F3-EGFR-D770_N771 insNPG, Ba/F3-EGFR-N771_P772 insH, Ba/F3-EGFR-H773_V774 insNPH, Ba/F3-EGFR-D770_N771 insSVD C797S, Ba/F3-EGFR-E746_A750del C797S, Ba/F3-EGFR-L858R C797S, Ba/F3-EGFR L861Q and Ba/F3-ERBB2-A775_G776insYVMA (Ba/F3-vector-control).” for “Ba/F3-EGFR-WT.”

Ba/F3-EGFR L861Q cells = test: BA/F3 (EGFR L861Q) proliferation, uncommon EGFR mutation; conditions: Table 10, classical activating and uncommon EGFR mutations
Protocol: as §1
as §2, with “Ba/F3-EGFR-V769_D770 insASV, Ba/F3-EGFR-D770_N771 insNPG, Ba/F3-EGFR-N771_P772 insH, Ba/F3-EGFR-H773_V774 insNPH, Ba/F3-EGFR-D770_N771 insSVD C797S, Ba/F3-EGFR-E746_A750del C797S, Ba/F3-EGFR-L858R C797S, Ba/F3-EGFR L861Q and Ba/F3-ERBB2-A775_G776insYVMA (Ba/F3-vector-control).” for “Ba/F3-EGFR-WT.”

[5] = tested on: Ba/F3-EGFR-D770_N771 insSVD C797S cells; test: BA/F3 (EGFR D770_N771 insSVD C797S) proliferation, acquired resistance; conditions: Ba/F3 EGFR-D770-N771ins_SVD; Table 11; acquired resistance space
Protocol: as §1
as §2, with “Ba/F3-EGFR-V769_D770 insASV, Ba/F3-EGFR-D770_N771 insNPG, Ba/F3-EGFR-N771_P772 insH, Ba/F3-EGFR-H773_V774 insNPH, Ba/F3-EGFR-D770_N771 insSVD C797S, Ba/F3-EGFR-E746_A750del C797S, Ba/F3-EGFR-L858R C797S, Ba/F3-EGFR L861Q and Ba/F3-ERBB2-A775_G776insYVMA (Ba/F3-vector-control).” for “Ba/F3-EGFR-WT.”

[6] = tested on: Ba/F3-EGFR-E746_A750del C797S cells; test: BA/F3 (EGFR E746_A750del C797S) proliferation, acquired resistance; conditions: Table 11, acquired resistance space
Protocol: as §1
as §2, with “Ba/F3-EGFR-V769_D770 insASV, Ba/F3-EGFR-D770_N771 insNPG, Ba/F3-EGFR-N771_P772 insH, Ba/F3-EGFR-H773_V774 insNPH, Ba/F3-EGFR-D770_N771 insSVD C797S, Ba/F3-EGFR-E746_A750del C797S, Ba/F3-EGFR-L858R C797S, Ba/F3-EGFR L861Q and Ba/F3-ERBB2-A775_G776insYVMA (Ba/F3-vector-control).” for “Ba/F3-EGFR-WT.”

[7] = tested on: Ba/F3-EGFR-L858R C797S cells; test: BA/F3 (EGFR L858R C797S) proliferation, acquired resistance; conditions: Table 11, acquired resistance space
Protocol: as §1
as §2, with “Ba/F3-EGFR-V769_D770 insASV, Ba/F3-EGFR-D770_N771 insNPG, Ba/F3-EGFR-N771_P772 insH, Ba/F3-EGFR-H773_V774 insNPH, Ba/F3-EGFR-D770_N771 insSVD C797S, Ba/F3-EGFR-E746_A750del C797S, Ba/F3-EGFR-L858R C797S, Ba/F3-EGFR L861Q and Ba/F3-ERBB2-A775_G776insYVMA (Ba/F3-vector-control).” for “Ba/F3-EGFR-WT.”

[8] = target: Ba/F3-ERBB2-A775_G776insYVMA cells (Homo sapiens, UniProt P04626, DUP772-775, cells depend on it); test: BA/F3 (ERBB2 A775_G776 insYVMA) proliferation; conditions: Table 12; read-out: BA/F3 (ERBB2 A775_G776 insYVMA) IC50
Protocol: as §1
as §2, with “Ba/F3-EGFR-V769_D770 insASV, Ba/F3-EGFR-D770_N771 insNPG, Ba/F3-EGFR-N771_P772 insH, Ba/F3-EGFR-H773_V774 insNPH, Ba/F3-EGFR-D770_N771 insSVD C797S, Ba/F3-EGFR-E746_A750del C797S, Ba/F3-EGFR-L858R C797S, Ba/F3-EGFR L861Q and Ba/F3-ERBB2-A775_G776insYVMA (Ba/F3-vector-control).” for “Ba/F3-EGFR-WT.”

Chain of Ba/F3-EGFR-L858R cells (P00533 whole entry L858R): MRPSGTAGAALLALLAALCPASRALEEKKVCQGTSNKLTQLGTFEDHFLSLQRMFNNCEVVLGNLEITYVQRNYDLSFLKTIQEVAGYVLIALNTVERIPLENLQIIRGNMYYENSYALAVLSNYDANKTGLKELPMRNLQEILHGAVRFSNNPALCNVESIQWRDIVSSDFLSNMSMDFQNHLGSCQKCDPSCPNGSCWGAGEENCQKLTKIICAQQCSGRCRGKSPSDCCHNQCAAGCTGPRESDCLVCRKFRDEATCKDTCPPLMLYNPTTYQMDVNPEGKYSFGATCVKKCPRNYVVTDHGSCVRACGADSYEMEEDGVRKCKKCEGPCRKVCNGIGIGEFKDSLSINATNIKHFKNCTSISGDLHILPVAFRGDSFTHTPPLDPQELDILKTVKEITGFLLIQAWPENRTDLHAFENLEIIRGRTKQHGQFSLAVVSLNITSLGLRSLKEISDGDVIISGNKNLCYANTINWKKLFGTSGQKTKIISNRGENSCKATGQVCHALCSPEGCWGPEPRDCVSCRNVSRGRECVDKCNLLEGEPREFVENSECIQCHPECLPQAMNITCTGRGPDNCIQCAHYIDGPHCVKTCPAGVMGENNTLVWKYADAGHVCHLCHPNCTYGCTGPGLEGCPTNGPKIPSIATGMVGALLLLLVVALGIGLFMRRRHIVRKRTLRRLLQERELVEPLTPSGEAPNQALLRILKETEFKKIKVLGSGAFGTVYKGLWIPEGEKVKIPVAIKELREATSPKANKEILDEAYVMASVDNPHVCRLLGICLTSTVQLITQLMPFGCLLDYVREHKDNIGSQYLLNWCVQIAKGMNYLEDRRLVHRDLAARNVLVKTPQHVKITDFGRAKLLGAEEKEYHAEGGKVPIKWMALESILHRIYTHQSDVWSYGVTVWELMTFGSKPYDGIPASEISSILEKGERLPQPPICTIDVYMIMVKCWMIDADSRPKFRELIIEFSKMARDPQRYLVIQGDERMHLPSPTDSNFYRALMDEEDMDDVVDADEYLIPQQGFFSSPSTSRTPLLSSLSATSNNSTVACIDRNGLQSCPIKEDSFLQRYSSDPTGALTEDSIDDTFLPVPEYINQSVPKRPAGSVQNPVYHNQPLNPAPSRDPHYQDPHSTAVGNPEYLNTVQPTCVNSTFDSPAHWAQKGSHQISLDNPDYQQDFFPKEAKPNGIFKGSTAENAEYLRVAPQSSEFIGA
Chain of Ba/F3-EGFR-V769_D770 insASV cells (P00533 with tags, fused parts or gaps DUP767-769): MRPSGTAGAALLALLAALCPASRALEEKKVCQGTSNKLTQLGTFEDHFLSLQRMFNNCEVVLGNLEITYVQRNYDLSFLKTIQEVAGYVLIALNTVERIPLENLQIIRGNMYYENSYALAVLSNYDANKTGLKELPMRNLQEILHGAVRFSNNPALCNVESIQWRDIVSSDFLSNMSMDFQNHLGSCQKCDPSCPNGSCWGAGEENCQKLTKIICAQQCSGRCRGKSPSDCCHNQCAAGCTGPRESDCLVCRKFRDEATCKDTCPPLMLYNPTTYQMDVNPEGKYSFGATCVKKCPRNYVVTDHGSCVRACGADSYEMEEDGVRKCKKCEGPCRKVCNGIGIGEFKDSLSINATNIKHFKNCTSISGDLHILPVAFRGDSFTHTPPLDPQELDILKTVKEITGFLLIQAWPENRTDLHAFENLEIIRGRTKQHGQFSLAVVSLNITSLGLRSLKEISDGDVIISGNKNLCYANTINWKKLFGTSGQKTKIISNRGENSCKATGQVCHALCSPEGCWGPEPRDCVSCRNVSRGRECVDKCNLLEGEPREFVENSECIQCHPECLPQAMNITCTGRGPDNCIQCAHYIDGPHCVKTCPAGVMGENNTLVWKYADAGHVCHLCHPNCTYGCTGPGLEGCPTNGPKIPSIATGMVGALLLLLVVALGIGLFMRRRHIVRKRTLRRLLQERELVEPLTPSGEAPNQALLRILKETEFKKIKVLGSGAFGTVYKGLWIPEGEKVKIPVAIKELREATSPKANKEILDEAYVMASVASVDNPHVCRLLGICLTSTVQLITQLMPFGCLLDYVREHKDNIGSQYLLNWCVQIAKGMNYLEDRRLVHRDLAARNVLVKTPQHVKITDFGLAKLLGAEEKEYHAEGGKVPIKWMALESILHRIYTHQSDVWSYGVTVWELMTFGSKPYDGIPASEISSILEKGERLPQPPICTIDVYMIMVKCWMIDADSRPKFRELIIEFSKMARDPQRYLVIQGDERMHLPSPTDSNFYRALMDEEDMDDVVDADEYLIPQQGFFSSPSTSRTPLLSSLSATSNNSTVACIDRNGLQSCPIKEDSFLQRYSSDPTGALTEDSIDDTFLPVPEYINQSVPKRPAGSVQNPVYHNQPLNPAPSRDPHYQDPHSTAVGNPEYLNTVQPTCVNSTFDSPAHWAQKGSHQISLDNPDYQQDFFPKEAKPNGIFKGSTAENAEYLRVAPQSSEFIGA
Chain of Ba/F3-EGFR-WT cells (BA/F3 wild type EGFR) (P00533 whole entry, change not shown): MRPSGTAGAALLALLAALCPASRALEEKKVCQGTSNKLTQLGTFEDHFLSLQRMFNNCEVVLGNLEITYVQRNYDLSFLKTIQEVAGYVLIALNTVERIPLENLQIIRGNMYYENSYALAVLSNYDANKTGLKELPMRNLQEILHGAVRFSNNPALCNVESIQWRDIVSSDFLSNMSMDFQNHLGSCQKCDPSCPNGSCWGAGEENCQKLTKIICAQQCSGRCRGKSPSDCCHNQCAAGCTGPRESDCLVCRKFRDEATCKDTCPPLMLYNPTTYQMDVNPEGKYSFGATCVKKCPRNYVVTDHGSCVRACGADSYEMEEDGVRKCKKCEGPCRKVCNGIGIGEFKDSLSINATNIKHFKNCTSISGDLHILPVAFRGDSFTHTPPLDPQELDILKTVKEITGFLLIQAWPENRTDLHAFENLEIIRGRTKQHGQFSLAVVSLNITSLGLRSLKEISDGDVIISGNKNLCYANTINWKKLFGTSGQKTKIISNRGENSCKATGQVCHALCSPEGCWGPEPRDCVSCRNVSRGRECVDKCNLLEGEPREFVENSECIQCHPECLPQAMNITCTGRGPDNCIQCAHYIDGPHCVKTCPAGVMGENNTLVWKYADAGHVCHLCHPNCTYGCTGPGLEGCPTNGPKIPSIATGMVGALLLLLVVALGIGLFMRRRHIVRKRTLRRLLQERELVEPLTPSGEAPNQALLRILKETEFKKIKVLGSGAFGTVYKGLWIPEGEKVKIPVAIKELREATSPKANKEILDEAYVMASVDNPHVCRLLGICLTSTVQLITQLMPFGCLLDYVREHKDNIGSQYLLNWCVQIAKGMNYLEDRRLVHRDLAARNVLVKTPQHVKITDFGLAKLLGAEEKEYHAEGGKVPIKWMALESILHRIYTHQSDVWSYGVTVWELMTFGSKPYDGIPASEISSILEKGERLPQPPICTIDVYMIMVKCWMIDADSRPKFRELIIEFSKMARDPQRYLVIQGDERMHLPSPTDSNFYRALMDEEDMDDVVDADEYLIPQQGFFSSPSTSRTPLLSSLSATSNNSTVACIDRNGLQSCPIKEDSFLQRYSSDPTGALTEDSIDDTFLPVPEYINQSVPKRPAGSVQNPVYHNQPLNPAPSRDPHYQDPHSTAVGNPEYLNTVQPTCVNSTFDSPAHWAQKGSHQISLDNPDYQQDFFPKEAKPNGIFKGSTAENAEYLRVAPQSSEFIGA
Chain of Ba/F3-EGFR-D770_N771 insNPG cells (P00533 with tags, fused parts or gaps INS772GNP): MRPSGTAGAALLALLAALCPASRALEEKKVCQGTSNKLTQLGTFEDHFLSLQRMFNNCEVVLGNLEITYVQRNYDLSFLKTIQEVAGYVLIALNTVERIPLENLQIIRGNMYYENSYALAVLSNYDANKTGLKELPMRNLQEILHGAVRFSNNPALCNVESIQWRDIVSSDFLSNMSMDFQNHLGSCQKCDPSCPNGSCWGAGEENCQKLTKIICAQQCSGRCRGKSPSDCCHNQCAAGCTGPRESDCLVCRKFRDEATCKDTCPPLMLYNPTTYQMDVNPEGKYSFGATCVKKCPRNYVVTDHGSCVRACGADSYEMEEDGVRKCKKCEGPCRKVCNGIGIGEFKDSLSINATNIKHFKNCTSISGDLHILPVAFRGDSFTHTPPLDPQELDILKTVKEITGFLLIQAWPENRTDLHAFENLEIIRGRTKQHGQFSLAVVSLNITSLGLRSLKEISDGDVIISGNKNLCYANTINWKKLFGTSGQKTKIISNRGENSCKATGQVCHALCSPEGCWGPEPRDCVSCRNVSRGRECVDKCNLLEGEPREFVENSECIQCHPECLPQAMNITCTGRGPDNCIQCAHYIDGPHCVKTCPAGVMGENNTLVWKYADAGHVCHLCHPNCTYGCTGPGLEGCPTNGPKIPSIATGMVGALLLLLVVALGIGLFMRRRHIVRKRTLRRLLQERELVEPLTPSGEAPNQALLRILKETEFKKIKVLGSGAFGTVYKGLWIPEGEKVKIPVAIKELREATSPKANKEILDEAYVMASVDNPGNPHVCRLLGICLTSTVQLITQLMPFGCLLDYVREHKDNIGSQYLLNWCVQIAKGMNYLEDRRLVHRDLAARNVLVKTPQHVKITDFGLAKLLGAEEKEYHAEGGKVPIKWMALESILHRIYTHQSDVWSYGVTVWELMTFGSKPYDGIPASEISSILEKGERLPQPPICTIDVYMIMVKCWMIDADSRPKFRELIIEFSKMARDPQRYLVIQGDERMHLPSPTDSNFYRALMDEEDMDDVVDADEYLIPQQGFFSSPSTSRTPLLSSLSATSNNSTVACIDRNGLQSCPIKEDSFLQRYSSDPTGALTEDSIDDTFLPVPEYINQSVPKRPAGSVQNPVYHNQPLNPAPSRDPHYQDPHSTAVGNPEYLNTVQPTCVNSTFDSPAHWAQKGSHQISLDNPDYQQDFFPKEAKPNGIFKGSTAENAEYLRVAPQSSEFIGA

GI50 [1]: 397 nM
GI50 [3]: 12.8 nM
GI50 [4]: 15.3 nM
pIC50 (Ba/F3-EGFR L861Q cells): 7.59
pIC50 [5]: 7.78
pIC50 [6]: 9.53
pIC50 [7]: 8.94
GI50 [8]: 17.1 nM
SMILES: COc1c(F)cccc1Nc1c(-c2ccncc2OCC(C)(C)OC)[nH]c2c1C(=O)NCC2 [Example 17, 3-[(3-fluoro-2-methoxyphenyl)amino]-2-[3-(2-methoxy-2-methylpropoxy)pyridin-4-yl]-1,5,6,7-tetrahydro-4H-pyrrolo[3,2-c]pyridin-4-one]
pIC50 ([2]; Table 8, without IL-3, 48 h, read-out: BA/F3 (EGFR del19/delREA (746-750) IC50)): 9.89
pIC50 ([2]; Table 10, classical activating and uncommon EGFR mutations, read-out: BA/F3 (EGFR E746_A750del) IC50): 9.24
GI50 (Ba/F3-EGFR-L858R cells; Table 8, without IL-3, 48 h): 1.2 nM
GI50 (Ba/F3-EGFR-L858R cells; Table 10, classical activating and uncommon EGFR mutations): 1.49 nM
